Data: publication PMC9501445 (2022)

Tested on: 22GT (DNA, G4) GGGTTAGGGTTAGGGTTAGGGT
Assay: ITC, global fit of coupled folding/binding model
Conditions: 100 mM K+; 1 mM cacodylate, 0.02 mM EDTA, pH 6.9, 3% DMSO, 25 °C; site 1 of 2 (intermediate I)

With `C[n+]1cc(NC(=O)c2cccc(C(=O)Nc3cc4ccccc4[n+](C)c3)n2)cc2ccccc21` the “ΔG°” value was -9.6 ± 0.6 kcal/mol.
